# From patent US20050197350A1, “Novel quinoline, tetrahydroquinazoline, and pyrimidine derivatives and methods of treatment related to the use thereof” (TAISHO PHARMACEUTICAL CO., LTD., priority 2003, published 2005)
# Like-named read-outs stand apart in the source and are kept apart here.
# Tested on: MCH receptors
# Test: MCH receptor activity class (method not given)
# [1] = class by percent of control at 10^-7 M or IC50
# [2] = MCH receptor, class by percent of control at 10^-7 M or IC50
# [3] = class 1-3 by percent of control at 10^-7 M or IC50
# [4] = class by percent of control at 10^−7 M or IC50
# [5] = MCH receptor activity class 1-3 (percent of control at 10^-7 M or IC50)
compound,measurement,setting,value
CN(C)c1cc(N[C@H]2CC[C@@H](NC(=O)CCC(=O)c3ccc(F)cc3)CC2)nc2ccccc12 [compound 707],class,[1],3 (Class 3 The value of percent of control at 10^−7 M was more than 60% or the value of IC50 was more than 200 nM.)
CCN(CC)c1ccc(CNC[C@H]2CC[C@@H](Nc3cc(N(C)C)c4ccccc4n3)CC2)cc1 [compound 1150],class,activity class per percent of control at 10^-7 M or IC50,3 (Class 3 The value of percent of control at 10^−7 M was more than 60% or the value of IC50 was more than 200 nM.)
CN(C)c1cc(N[C@H]2CC[C@@H](NCCc3ccc(Br)cc3)CC2)nc2ccccc12 [compound 1447],class,[1],3 (Class 3 The value of percent of control at 10^−7 M was more than 60% or the value of IC50 was more than 200 nM.)
CN(C)c1nc(N[C@H]2CC[C@@H](NC(=O)Nc3ccc(C(F)(F)F)cc3)CC2)nc2c1CCCC2 [compound 1878],class,[1],3 (Class 3 The value of percent of control at 10^−7 M was more than 60% or the value of IC50 was more than 200 nM.)
"COc1cccc(C(=O)N[C@H]2CC[C@@H](Nc3ncc(C)c(N(C)C)n3)CC2)c1 [Example 2563, N-(cis-4-{[4-(dimethylamino)-5-methylpyrimidin-2-yl]amino}cyclohexyl)-3-methoxybenzamide]",class,,1
"CN(C)c1ccnc(N[C@H]2CC[C@@H](NC(=O)c3cc(F)cc(C(F)(F)F)c3)CC2)n1 [compound 256, N-(cis-4-{[4-(dimethylamino)pyrimidin-2-yl]amino}cyclohexyl)-3-fluoro-5-(trifluoromethyl)benzamide]",class,[1],2 (Class 2: The value of percent of control at 10^−7 M was from 40% to 60% or the value of IC′50 was from 50 nM to 200 nM.)
CN(C)c1nc(N[C@H]2CC[C@@H](NC(=S)Nc3cc(Cl)ccc3F)CC2)nc2c1CCCC2 [compound 2066],class,[2],3 (Class 3 The value of percent of control at 10^−7 M was more than 60% or the value of IC50 was more than 200 nM.)
COc1cc(CNC[C@H]2CC[C@@H](Nc3nc4c(c(N(C)C)n3)CCCC4)CC2)cc(OC)c1OC [compound 1378],class,[1],2 (Class 2: The value of percent of control at 10^−7 M was from 40% to 60% or the value of IC′50 was from 50 nM to 200 nM.)
"COc1ccc(C(=O)N[C@H]2CC[C@@H](Nc3nccc(N(C)C)n3)CC2)cc1OCc1ccccc1 [compound 889, 3-(benzyloxy)-N-(cis-4-{[4-(dimethylamino)pyrimidin-2-yl]amino}cyclohexyl)-4-methoxybenzamide]",class,[1],1 (Class 1: The value of percent of control at 10^−7 M was less than 40% or the value of IC50 was less than 50 nM.)
CN(C)c1nc(N[C@H]2CC[C@@H](NC(=O)/C=C/c3ccc([N+](=O)[O-])cc3)CC2)nc2c1CCCC2 [compound 515],class,[3],3 (Class 3 The value of percent of control at 10^−7 M was more than 60% or the value of IC50 was more than 200 nM.)
Cc1cnc(N[C@H]2CC[C@@H](NC(=O)c3ccc(F)c(Cl)c3)CC2)nc1N(C)C [compound 2932],class,[4],3 (Class 3 The value of percent of control at 10^−7 M was more than 60% or the value of IC50 was more than 200 nM.)
CN(C)c1cc(N[C@H]2CC[C@@H](NC(=O)Nc3ccc(Oc4ccccc4)cc3)CC2)nc2ccccc12 [compound 2132],class,[1],3 (Class 3 The value of percent of control at 10^−7 M was more than 60% or the value of IC50 was more than 200 nM.)
CN(C)c1nc(N[C@H]2CC[C@@H](NC(=O)Nc3cc(F)cc4c3OCOC4)CC2)nc2c1CCCC2 [compound 1920],class,[2],3 (Class 3 The value of percent of control at 10^−7 M was more than 60% or the value of IC50 was more than 200 nM.)
"Cc1cc(N[C@H]2CC[C@@H](NC(=O)c3cc(C(F)(F)F)cc(C(F)(F)F)c3)CC2)nc2ccccc12 [Example 2548, N-{cis-4-[(4-methylquinolin-2-yl)amino]cyclohexyl}-3,5-bis(trifluoromethyl)benzamide]",class,,1
CN(C)c1nc(N[C@H]2CC[C@@H](NC(=O)c3ccc(F)cc3)CC2)nc2c1CCCC2 [compound 473],class,[3],1 (Class 1: The value of percent of control at 10^−7 M was less than 40% or the value of IC50 was less than 50 nM.)
CN(C)c1nc(N[C@H]2CC[C@@H](NC[C@@H](COCc3ccccc3)OCc3ccccc3)CC2)nc2c1CCCC2 [compound 1487],class,[1],3 (Class 3 The value of percent of control at 10^−7 M was more than 60% or the value of IC50 was more than 200 nM.)
COc1cccc(NC(=S)N[C@H]2CC[C@@H](Nc3nc4c(c(N(C)C)n3)CCCC4)CC2)c1 [compound 1986],class,[2],3 (Class 3 The value of percent of control at 10^−7 M was more than 60% or the value of IC50 was more than 200 nM.)
CN(C)c1nc(N[C@H]2CC[C@@H](NC(=O)c3cccc(Br)c3)CC2)nc2c1CCCC2 [compound 457],class,[3],1 (Class 1: The value of percent of control at 10^−7 M was less than 40% or the value of IC50 was less than 50 nM.)
"Cc1cc(Br)cc(C)c1NC(=O)NC[C@H]1CC[C@@H](Nc2nccc(N(C)C)n2)CC1 [compound 2436, N-(4-bromo-2,6-dimethylphenyl)-N′-[(cis-4-{[4-(dimethylamino)pyrimidin-2-yl]amino}cyclohexyl)methyl]urea]",class,[5],1 (Class 1: The value of percent of control at 10^−7 M was less than 40% or the value of IC50 was less than 50 nM.)
"CN(C)c1ccnc(N[C@H]2CC[C@@H](CNC(=O)Nc3c(Cl)cc(Cl)cc3Cl)CC2)n1 [compound 2415, N-[(cis-4-{[4-(dimethylamino)pyrimidin-2-yl]amino}cyclohexyl)methyl]-N′-(2,4,6-trichlorophenyl)urea]",class,[5],1 (Class 1: The value of percent of control at 10^−7 M was less than 40% or the value of IC50 was less than 50 nM.)
COc1ccc(CCCCNC[C@H]2CC[C@@H](Nc3nc4c(c(N(C)C)n3)CCCC4)CC2)cc1 [compound 1499],class,[1],3 (Class 3 The value of percent of control at 10^−7 M was more than 60% or the value of IC50 was more than 200 nM.)
CN(C)c1cc(N[C@H]2CC[C@@H](CNCc3cc(C(F)(F)F)cc(Cl)c3F)CC2)nc2ccccc12 [compound 1197],class,[1],3 (Class 3 The value of percent of control at 10^−7 M was more than 60% or the value of IC50 was more than 200 nM.)
"COc1cc(NC(=S)N[C@H]2CC[C@@H](Nc3cc(N(C)C)c4ccccc4n3)CC2)cc(OC)c1OC [compound 2175, N-(cis-4-{[4-(dimethylamino)quinolin-2-yl]amino}cyclohexyl)-N′-(3,4,5-trimethoxyphenyl)thiourea]",class,[1],1 (Class 1: The value of percent of control at 10^−7 M was less than 40% or the value of IC50 was less than 50 nM.)
CCCc1c(CNC[C@H]2CC[C@@H](Nc3cc(N(C)C)c4ccccc4n3)CC2)cnn1-c1ccc(Cl)cc1 [compound 1479],class,[1],1 (Class 1: The value of percent of control at 10^−7 M was less than 40% or the value of IC50 was less than 50 nM.)
"Cc1cccc(C(C)(C)C)c1NC(=O)N[C@H]1CC[C@@H](Nc2nc3c(c(N(C)C)n2)CCCC3)CC1 [compound 1683, N-(2-tert-butyl-6-methylphenyl)-N′-(cis-4-{[4-(dimethylamino)-5,6,7,8-tetrahydroquinazolin-2-yl]amino}cyclohexyl)urea]",class,activity class 1-3: percent of control at 10^-7 M or IC50,2 (Class 2: The value of percent of control at 10^−7 M was from 40% to 60% or the value of IC′50 was from 50 nM to 200 nM.)
CN(C)c1nc(N[C@H]2CC[C@@H](NC(=O)NCc3ccc(Cl)cc3Cl)CC2)nc2c1CCCC2 [compound 1710],class,[1],2 (Class 2: The value of percent of control at 10^−7 M was from 40% to 60% or the value of IC′50 was from 50 nM to 200 nM.)
CC(C)c1cc(Br)c(NC(=O)N[C@H]2CC[C@@H](Nc3nccc(N(C)C)n3)CC2)c(Br)c1 [compound 2252],class,[1],2 (Class 2: The value of percent of control at 10^−7 M was from 40% to 60% or the value of IC′50 was from 50 nM to 200 nM.)
CN(C)c1ccnc(N[C@H]2CC[C@@H](NC(=O)c3ccc(F)cc3F)CC2)n1 [compound 344],class,[1],3 (Class 3 The value of percent of control at 10^−7 M was more than 60% or the value of IC50 was more than 200 nM.)
CN(C)c1nc(N[C@H]2CC[C@@H](NC(=S)Nc3ccc(-n4cccn4)cc3)CC2)nc2c1CCCC2 [compound 2082],class,[2],3 (Class 3 The value of percent of control at 10^−7 M was more than 60% or the value of IC50 was more than 200 nM.)
C[C@@H](CNC[C@H]1CC[C@@H](Nc2cc(N(C)C)c3ccccc3n2)CC1)N(Cc1ccccc1)Cc1ccccc1 [compound 1477],class,[1],3 (Class 3 The value of percent of control at 10^−7 M was more than 60% or the value of IC50 was more than 200 nM.)
"Cc1cnc(N[C@H]2CC[C@@H](NC(=O)c3cc(F)cc(C(F)(F)F)c3)CC2)nc1N(C)C [compound 2930, N-(cis-4-{[4-(dimethylamino)-5-methylpyrimidin-2-yl]amino}cyclohexyl)-3-fluoro-5-(trifluoromethyl)benzamide]",class,[4],1 (Class 1: The value of percent of control at 10^−7 M was less than 40% or the value of IC50 was less than 50 nM.)
Cc1cc(N(C)C)nc(N[C@H]2CC[C@@H](CNC(=O)c3ccc(Cl)c(Cl)c3)CC2)n1 [compound 2767],class,[4],2 (Class 2: The value of percent of control at 10^−7 M was from 40% to 60% or the value of IC′50 was from 50 nM to 200 nM.)
CN(C)c1cc(N[C@H]2CC[C@@H](CNC(=O)c3c(F)ccc(F)c3F)CC2)nc2ccccc12 [compound 227],class,[1],3 (Class 3 The value of percent of control at 10^−7 M was more than 60% or the value of IC50 was more than 200 nM.)
"CN(C)c1cc(N[C@H]2CC[C@@H](NC(=O)c3ccc(F)c(Cl)c3)CC2)nc2ccccc12 [compound 73, 3-chloro-N-(cis-4-{[4-(dimethylamino)quinolin-2-yl]amino}cyclohexyl)-4-fluorobenzamide]",class,[2],1 (Class 1: The value of percent of control at 10^−7 M was less than 40% or the value of IC50 was less than 50 nM.)
"Cc1cnc(N[C@H]2CC[C@@H](NC(=O)c3ccc(F)c(F)c3F)CC2)nc1N(C)C [compound 2903, N-(cis-4-{[4-(dimethylamino)-5-methylpyrimidin-2-yl]amino}cyclohexyl)-2,3,4-trifluorobenzamide]",class,[4],1 (Class 1: The value of percent of control at 10^−7 M was less than 40% or the value of IC50 was less than 50 nM.)
